# Values quoted from earlier work, collected in US10950327B2, “Methods and tools for detecting, diagnosing, predicting, prognosticating, or treating a neurobehavioral phenotype in a subject” (BlackThorn Therapeutics, Inc., priority 2017, dated 2021).
# How the values were obtained:
# [1] = tested on: patients with schizophrenia
# 5HT6 receptors = 5HT6 receptors (Homo sapiens, UniProt P50406)
# [2] = in vivo
# [3] = target: muscarinic M3 (CHRM3) receptor (Homo sapiens, UniProt P20309)
# [4] = tested on: mean functional connectivity (Global Brain Connectivity, GBC); conditions: healthy human subjects
# Sequence of muscarinic M3 (CHRM3) receptor (P20309 whole entry): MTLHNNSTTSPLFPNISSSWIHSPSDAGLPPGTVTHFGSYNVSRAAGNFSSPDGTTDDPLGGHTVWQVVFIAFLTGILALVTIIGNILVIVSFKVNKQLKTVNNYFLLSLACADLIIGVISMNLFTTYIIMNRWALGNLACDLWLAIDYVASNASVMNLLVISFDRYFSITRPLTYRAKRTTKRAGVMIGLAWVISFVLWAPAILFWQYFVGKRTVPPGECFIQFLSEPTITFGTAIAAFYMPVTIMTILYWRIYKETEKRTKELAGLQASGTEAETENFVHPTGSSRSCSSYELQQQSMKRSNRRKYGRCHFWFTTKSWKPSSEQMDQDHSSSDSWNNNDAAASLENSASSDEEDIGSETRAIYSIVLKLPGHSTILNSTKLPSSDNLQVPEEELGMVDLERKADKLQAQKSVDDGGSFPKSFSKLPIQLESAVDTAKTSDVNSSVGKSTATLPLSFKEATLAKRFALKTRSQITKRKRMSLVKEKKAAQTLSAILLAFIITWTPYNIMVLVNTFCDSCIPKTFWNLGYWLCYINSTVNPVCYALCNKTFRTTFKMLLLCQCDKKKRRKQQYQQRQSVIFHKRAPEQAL
# Sequence of 5HT6 receptors (P50406 whole entry): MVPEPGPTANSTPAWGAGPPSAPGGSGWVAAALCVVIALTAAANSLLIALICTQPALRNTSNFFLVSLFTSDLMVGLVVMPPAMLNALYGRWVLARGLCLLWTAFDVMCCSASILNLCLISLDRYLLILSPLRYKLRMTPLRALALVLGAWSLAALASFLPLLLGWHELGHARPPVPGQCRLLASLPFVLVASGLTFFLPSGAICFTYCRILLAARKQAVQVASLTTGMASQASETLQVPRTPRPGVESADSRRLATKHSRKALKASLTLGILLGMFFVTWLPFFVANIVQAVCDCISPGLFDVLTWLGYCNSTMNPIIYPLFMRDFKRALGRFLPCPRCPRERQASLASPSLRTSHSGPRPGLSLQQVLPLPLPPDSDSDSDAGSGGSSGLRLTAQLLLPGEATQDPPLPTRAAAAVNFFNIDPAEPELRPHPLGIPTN
smiles,measurement,setting,value
Cc1nc2cccc(C(F)(F)F)c2c(=O)n1-c1ccc(OCCCN2CCCC2)cc1 [MK-0249],improvement of cognitive deficits,[1],failed to improve cognitive deficits
O=C1Nc2ccc(Cl)cc2[C@@](C#CC2CC2)(C(F)(F)F)O1 [efavirenz],suppression of HIV-1,HIV-1,effective in suppressing HIV-1
same,activity at 5HT6 receptors,5HT6 receptors,inverse agonist activity
same,risk of neuropsychiatric symptoms,[2],increase the risk of neuropsychiatric symptoms
same,activity at muscarinic M3 (CHRM3) receptor,[3],antagonist activity
"CCN(CC)C(=O)[C@@H]1C=C2c3cccc4[nH]cc(c34)C[C@H]2N(C)C1 [LSD, lysergic acid diethylamide]","change in mean functional connectivity (Global Brain Connectivity, GBC)","[4]; acute administration, fMRI-derived cortical map",large increase in occipital visual cortex
O=C(c1ccc(F)cc1)C1CCN(CCn2c(=O)[nH]c3ccccc3c2=O)CC1 [ketanserin],effect on LSD-induced neural change and behavioral effects,[4]; pre-administration before LSD,blocked
